In patent publication US20260137790A1, “MIXED VASOPRESSIN RECEPTOR AGONIST-ANTAGONIST FOR MODULATING MEAN ARTERIAL PRESSURE” (FERRING B.V., priority 2022, published 2026):
Where two headings read alike, the source gives them in different places. Starred links: 1 amine or outer side, 2 acyl side, 3 side chain; linkers in the order of their positions; H or OH if unused. Positions of bridges follow the written chain, without caps; N, C: chain ends. Non-standard residues stand in square brackets, D forms with d. Residues, ends and D or L forms follow the SMILES beside them. Groups on a side chain read outwards from the residue. *: point of attachment. X1 = CC(=O)NCCCC[C@H](NC(=O)CC[C@H](N)C(N)=O)C(=O)*; εLys = N[C@@H](CCCCN[*:1])C(=O)[*:2]; Dab = NCC[C@H](N)C(=O)O

Experiments:
[1] = human, in vivo; for AUC: M1 AUC; for Tmax: M1 tmax
Description: (§1) The trial comprised two treatment periods, treatment Period 1 and treatment Period 2 (see FIG. 1).
(§2) The study was conducted in two periods where the treatment in Period 1 was administered as an intravenous infusion, and the treatment in Period 2 was administered as subcutaneous injections. The trial comprised 5 ascending dose panels, each dose panel comprising 8 healthy subjects (6 active, 2 placebo). A new cohort of subjects was used for each dose panel.
(§3) If no safety concerns arose, as judged by the Investigator, the remaining subjects in that dose group were randomized and treated according to the randomization and protocol in a staggered dosing manner.
(§4) Treatment period 2: After a resting period of 2-18 days each subject received a once daily subcutaneous dose for 5 days of the same treatment as in Period 1. The dose was selected to prevent the exposure to exceed the intravenous exposure. […] A SRC evaluated the safety and tolerability of the compound after the completion of all subjects in the dose group.
(§5) The continuation of the same subjects from intravenous to subcutaneous administration was selected to get an as reliable as possible estimate of the bioavailability (F) in the small groups outlined.
(§6) The intravenous dose to the first dose panel was the lowest dose giving a clear signal of pharmacological activity in the preceding trial. The administration was performed by using a piston-driven syringe auto-infusion pump. The administered volume was recorded for each subject.
(§7) In Period 2, subjects received a once-daily subcutaneous injection for 5 days of the same treatment as in Period 1 at different locations on the abdomen (Table 5). The subcutaneous doses were selected based on data from a previous trial.

[2] = Metabolite M1 formation in healthy rats after IV bolus and SC (bolus) injection; type: in vivo; conditions: rat
Description: A similar study in healthy rats was used to evaluate the differences between metabolite formation of Compound 1 after IV bolus and SC (bolus) injection.

[3] = SC (bolus) injection of high/low buffer compositions in rats: bioavailability, M1 formation; type: in vivo, rat; conditions: rats
[4] = in vivo
Description: as §1, §2, §3, §4, §5, §6, §7

adult male Wistar rats = assay: Skin blood flow and blood lactate in anesthetized rats (IV infusion); type: in vivo, rat
Description: This study was performed over multiple experiments using a total of 48 adult male Wistar rats. […] Compounds were infused via an IV catheter at six sequentially increasing doses.
On the day of experimentation animals were anesthetized and instrumented. A tracheostomy was performed to allow assisted respiration and three catheters were placed. Laser Doppler probes were positioned on a shaved portion of the animal's lower abdominal skin for blood-flow measurements. Ventilation was initiated, and baseline readings for the primary parameter of skin blood flow (SBF) were recorded. Readings for the secondary parameters were also recorded: (1) blood lactate concentration, (2) mean arterial pressure (MAP), and (3) blood pH. Data collection was performed continuously for SBF and MAP using NOTOCORD-hem™ (Instem), and blood samples were taken at each compound dose and immediately analyzed using an i-STAT® meter.
After the final dose administration, animals were euthanized and a final SBF measurement was recorded to detect any signal from the flow probe after the animal's heart stopped beating to control for a signal not attributed to blood flow. Animal body temperature, pulse, and ventilation adequacy were monitored throughout the procedure.

rV2 = biological target: T1, rV2 (Rattus norvegicus, UniProt Q00788); assay: Luciferase reporter gene assay, rV2; type: cell-based; conditions: rV2, relative to dDAVP
T1 construct: host or cells: HEK-293 cells, transient
Description: (§8) Cell Maintenance. HEK-flp-in cells were maintained in Dulbecco's modified Eagle's medium (DMEM) containing 10% (v/v) heat-inactivated fetal bovine serum (FBS), 4 mM GlutaMAX™—I, and 25 μg/mL hygromycin B at 37° C. under 5% CO2 in a humidified atmosphere. […] On the day prior to the assay, cells were removed from culture flasks using trypsin EDTA, harvested in the medium used for cell culture, and seeded into 384-well (for V1a) or 96-well (for other receptors) poly-d-Iysine-treated plates at 7.5×10^4 cells in 20 μL/well for rV1a, 2.5×10^4 cells in 20 μL/well for hV1a, and 4-5×10^4 cells in 100 μL/well for all other receptors.
(§9) Functional Cell-Based Assays. To detect activity generated by binding of the test compounds to endogenous rV1a receptors or the stably expressed hV1a receptors, Fluorometric Imaging Plate Reader (FLlPR) calcium assays were performed. Briefly, real-time fluorescence of an intracellular calcium-sensitive dye was measured immediately upon addition of the test compound at various concentrations. […] Reporter gene assays were used to monitor agonist-induced activity at the human and rat V1b, V2, and OT receptors. […] Expression of the luciferase gene was determined after 5-h incubation with various concentrations of test compound. […] For V1a receptor response, area under the curve of the real-time calcium traces, expressed as relative fluorescence units, was determined. […]

rOTR = biological target: T2, rOTR (Rattus norvegicus, UniProt P70536); conditions: relative to carbetocin
T2 sequence (P70536 1-388): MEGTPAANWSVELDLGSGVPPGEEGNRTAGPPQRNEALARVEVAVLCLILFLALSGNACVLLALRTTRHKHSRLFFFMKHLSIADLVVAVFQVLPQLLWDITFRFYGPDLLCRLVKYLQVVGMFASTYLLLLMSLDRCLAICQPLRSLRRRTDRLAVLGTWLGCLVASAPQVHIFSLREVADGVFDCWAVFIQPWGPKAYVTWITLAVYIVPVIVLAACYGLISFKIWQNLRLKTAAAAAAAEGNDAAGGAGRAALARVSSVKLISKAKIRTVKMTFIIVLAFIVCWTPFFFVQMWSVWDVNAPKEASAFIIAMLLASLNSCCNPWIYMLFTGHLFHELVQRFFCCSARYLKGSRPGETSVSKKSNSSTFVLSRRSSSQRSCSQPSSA
Description: as §8, §9

T1 sequence (Q00788 whole entry): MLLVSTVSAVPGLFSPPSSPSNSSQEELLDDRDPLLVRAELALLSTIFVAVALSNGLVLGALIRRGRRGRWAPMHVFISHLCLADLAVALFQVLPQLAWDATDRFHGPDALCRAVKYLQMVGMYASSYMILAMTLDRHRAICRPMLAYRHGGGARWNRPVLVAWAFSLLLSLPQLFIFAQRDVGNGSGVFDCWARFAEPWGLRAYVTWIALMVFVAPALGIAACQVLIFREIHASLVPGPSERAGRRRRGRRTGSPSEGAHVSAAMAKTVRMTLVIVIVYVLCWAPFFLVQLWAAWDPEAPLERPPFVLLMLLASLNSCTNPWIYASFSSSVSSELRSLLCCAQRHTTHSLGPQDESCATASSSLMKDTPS

## CC[C@H](C)[C@@H]1NC(=O)[C@H](Cc2ccccc2)NC(=O)[C@@H](N)CSSC[C@@H](C(=O)N2CCC[C@H]2C(=O)N[C@@H](CCNC(=O)[C@@H](N)CCCCNC(=O)[C@H](CCCCNC(C)=O)NC(=O)CC[C@H](N)C(N)=O)C(=O)NCC(N)=O)NC(=O)[C@H](CC(N)=O)NC(=O)[C@H](CCC(N)=O)NC1=O [Compound M1] (H-CFIQNCP[Dab]([εLys-X1])G-NH2; disulfide 1-6)
[1]; iv, 0.9 mg, M1 mean Cmax
  Cmax: 0.1 to 0.25 ng/mL
[1]; iv, M1 harmonic mean terminal half-life
  half-life: ~4 h
[1]; sc, 0.1 mg, geometric mean
  AUC: 2.51 ng·h/mL
[1]; sc, 0.1 mg, max
  AUC: 3.5 ng·h/mL
  Tmax: 2 h
[1]; sc, 0.1 mg, mean
  AUC: 2.6 ng·h/mL
  Tmax: 0.8 h
[1]; sc, 0.1 mg, min
  AUC: 1.71 ng·h/mL
  Tmax: 0.3 h
[1]; sc, 0.1 mg, M1 Cmax, geometric mean
  Cmax: 0.9 ng/mL
[1]; sc, 0.1 mg, M1 Cmax, max
  Cmax: 1.28 ng/mL
[1]; sc, 0.1 mg, M1 Cmax, mean
  Cmax: 0.93 ng/mL
[1]; sc, 0.1 mg, M1 Cmax, min
  Cmax: 0.7 ng/mL
[1]; sc, 0.1 mg, M1 t1/2, harmonic mean
  half-life: 1.5 h
[1]; sc, 0.1 mg, M1 t1/2, max
  half-life: 2.1 h
[1]; sc, 0.1 mg, M1 t1/2, mean
  half-life: 1.6 h
[1]; sc, 0.1 mg, M1 t1/2, min
  half-life: 1 h
[1]; sc, 0.1 mg, median
  Tmax: 0.5 h
[1]; sc, 0.3 mg, geometric mean
  AUC: 6.71 ng·h/mL
[1]; sc, 0.3 mg, max
  AUC: 10.2 ng·h/mL
  Tmax: 1.1 h
[1]; sc, 0.3 mg, mean
  AUC: 7.55 ng·h/mL
  Tmax: 0.8 h
[1]; sc, 0.3 mg, min
  AUC: 3.2 ng·h/mL
  Tmax: 0.5 h
[1]; sc, 0.3 mg, min, max (n 1)
  AUC: 11.3 ng·h/mL
[1]; sc, 0.3 mg, M1 Cmax, geometric mean
  Cmax: 1.63 ng/mL
[1]; sc, 0.3 mg, M1 Cmax, max
  Cmax: 2.93 ng/mL
[1]; sc, 0.3 mg, M1 Cmax, mean
  Cmax: 2.01 ng/mL
[1]; sc, 0.3 mg, M1 Cmax, min
  Cmax: 0.6 ng/mL
[1]; sc, 0.3 mg, M1 harmonic mean terminal half-life
  half-life: 1.5 to 2 h
[1]; sc, 0.3 mg, M1 t1/2, harmonic mean
  half-life: 1.9 h
[1]; sc, 0.3 mg, M1 t1/2, max
  half-life: 2.4 h
[1]; sc, 0.3 mg, M1 t1/2, mean
  half-life: 2 h
[1]; sc, 0.3 mg, M1 t1/2, min
  half-life: 1.5 h
[1]; sc, 0.3 mg, M1 t1/2, min, max (n 1)
  half-life: 2.1 h
[1]; sc, 0.3 mg
  Tmax: 0.5 to 1.5 h
[1]; sc, 0.3 mg, median
  Tmax: 1 h
[2]
  Compound 1 converted to M1: 80-90%
[3]
  relative amount of M1 formed, more with 10 mM than with 100 mM buffer: at least 15%
[3]; in some cases
  relative amount of M1 formed, less with high vs lower buffer concentration: about 50%
[4]; human, iv
  M1 time of Cmax: approx. 5 hours
[4]; human, sc, 0.1 mg
  M1 AUC, geometric mean: 2.68 ng·h/mL
  M1 AUC, max: 3.10 ng·h/mL
  M1 AUC, mean: 2.70 ng·h/mL
  M1 AUC, min: 2.39; h*ng/mL
  M1 Cmax, geometric mean: 0.98 ng/mL
  M1 Cmax, max: 1.27 ng/mL
  M1 Cmax, mean: 1.01 ng/mL
  M1 Cmax, min: 0.74; ng/mL
  M1 t1/2, harmonic mean: 1.4 h
  M1 t1/2, max: 2.2 h
  M1 t1/2, mean: 1.6 h
  M1 t1/2, min: 0.8; h
  M1 tmax, min: 0.5; h
[4]; human, sc, 0.3 mg
  M1 Cmax, geometric mean: 1.76 ng/mL
  M1 Cmax, max: 3.62 ng/mL
  M1 Cmax, mean: 2.24 ng/mL
  M1 Cmax, min: 0.86; ng/mL
  M1 t1/2, mean: 2.1 h
  M1 tmax, mean: 1.5 h
  M1 tmax, median: 1.5 h
  M1 tmax, min: 1.0; h
[4]; iv
  formation of M1: 0-15%

## NC(=O)CC[C@@H]1NC(=O)[C@H](Cc2ccccc2)NC(=O)[C@H](Cc2ccc(O)cc2)NC(=O)[C@@H](N)CSSC[C@@H](C(=O)N2CCC[C@H]2C(=O)N[C@@H](CCCN=C(N)N)C(=O)NCC(N)=O)NC(=O)[C@H](CC(N)=O)NC1=O [AVP, arginine vasopressin]
Adult male Wistar rats; anesthetized rats, IV infusion
  ED50, skin blood flow: 12.6 pmol/kg/min
Adult male Wistar rats; rats, IV 3 pmoL/kg/min
  mean blood lactate concentration: 1.34 mM
Adult male Wistar rats; rats, IV 600 pmoL/kg/min
  mean blood lactate concentration: 4.27 mM
Adult male Wistar rats; rats, IV, compared with vehicle
  blood lactate at highest doses tested: significantly elevated
Adult male Wistar rats; rats, intravenous administration
  decrease of skin blood flow from baseline (approximate maximal): about 90%
rV2
  % MPE Mean: 98 % MPE
rOTR
  % MPE Mean: 82 % MPE
